According to patent publication US10272090B1, “Liquid pharmaceutical composition comprising pemetrexed” (SYNTHON B.V., priority 2014, dated 2019):

Assay: Solubility / precipitation of pemetrexed diacid in aqueous solution depending on pH
Format: physicochemical
Settings: aqueous solutions with neutral or acidic pH

solubility: very low
SMILES: Nc1nc2[nH]cc(CCc3ccc(C(=O)N[C@@H](CCC(=O)O)C(=O)O)cc3)c2c(=O)[nH]1 [pemetrexed diacid, N-[4-[2-(2-amino-4,7-dihydro-4-oxo-1H-pyrrolo[2,3-d]pyrimidin-5-yl)ethyl]benzoyl]-L-glutamic acid]
